Legend:
Type in all cases: cell-based
[1] = system: AMPK; assay: Effect of saponins of the extract on activity of AMPK in 3T3-L1 cells (p-AMPK); conditions: FIG. 1 and FIG. 2
Excerpt: (§1) The effect of the saponins of the extract according to the present disclosure on the activity of AMPK, ACC and FAS in 3T3-L1 cells is shown in FIG. 1 and FIG. 2. AMPK is an enzyme involved in fatty acid oxidation, inhibition of adipocyte differentiation, etc. It is involved in inhibition of fatty acid biosynthesis and fatty acid degradation by phosphorylating (inactivating) ACC through AMPK phosphorylation (p-AMPK). FAS (fatty acid synthase) plays a role of promoting fatty acid synthesis.

[2] = system: ACC; assay: Effect of saponins of the extract on activity of ACC in 3T3-L1 cells (p-ACC); conditions: FIG. 1 and FIG. 2
Excerpt: as §1

[3] = system: FAS (fatty acid synthase); assay: Effect of saponins of the extract on FAS expression in 3T3-L1 cells; conditions: FIG. 1 and FIG. 2
Excerpt: as §1

[4] = system: fat accumulation; assay: Effect of saponins of the fermented extract on fat accumulation (FIG. 3); conditions: as compared to a control group
Excerpt: The effect of the saponins of the extract of fermented Gynostemma pentaphyllum according to the present disclosure on fat accumulation was investigated.

Row | SMILES | activation of p-AMPK [1] | activation of p-ACC [2] | expression of FAS (fatty acid synthase) [3] | inhibition of fat accumulation [4]
1 | CC(C)=CCC[C@@](C)(O)[C@H]1CC[C@]2(C)[C@@H]1[C@H](O)C[C@@H]1[C@@]3(C)C[C@@H](O)[C@H](O[C@@H]4O[C@H](CO)[C@@H](O)[C@H](O)[C@H]4O[C@@H]4O[C@H](CO)[C@@H](O)[C@H](O)[C@H]4O)C(C)(C)[C@@H]3CC[C@]12C [gypenoside LI] | activated p-AMPK and p-ACC in a concentration-dependent manner | activated p-AMPK and p-ACC in a concentration-dependent manner | inhibiting the expression of FAS | exhibited an effect of inhibiting fat accumulation
2 | CC(C)=CCC[C@](C)(O)[C@H]1CC[C@]2(C)[C@@H]1[C@H](O)C[C@@H]1[C@@]3(C)CC[C@H](O[C@@H]4O[C@H](CO)[C@@H](O)[C@H](O)[C@H]4O[C@@H]4O[C@H](CO)[C@@H](O)[C@H](O)[C@H]4O)C(C)(C)[C@@H]3CC[C@]12C [ginsenoside Rg3] | activated p-AMPK and p-ACC in a concentration-dependent manner | activated p-AMPK and p-ACC in a concentration-dependent manner | inhibiting the expression of FAS | exhibited an effect of inhibiting fat accumulation
3 | CC(C)=CCC[C@](C)(O)[C@H]1CC[C@]2(C)[C@@H]1[C@H](O)C[C@@H]1[C@@]3(C)C[C@@H](O)[C@H](O[C@@H]4O[C@H](CO)[C@@H](O)[C@H](O)[C@H]4O[C@@H]4O[C@H](CO)[C@@H](O)[C@H](O)[C@H]4O)C(C)(C)[C@@H]3CC[C@]12C [gypenoside L] |  |  |  | exhibited an effect of inhibiting fat accumulation
